# Values of other authors as cited in paper PMC8035703, “Effect of Synchronous Versus Sequential Regimens on the Pharmacokinetics and Biodistribution of Regorafenib with Irradiation” (Pharmaceutics, 2021).
# Set-up: method as in PMID 26867886, PMID 28202227, PMID 24971021
# Settings: HCC patients who received RT concurrently or sequentially with sorafenib; cited from earlier work
compound,measurement,value
CNC(=O)c1cc(Oc2ccc(NC(=O)Nc3ccc(Cl)c(C(F)(F)F)c3)cc2)ccn1 [sorafenib],Incidence of adverse effects,> 30%
